Source: patent EP4516107A1, “CHITOSAN AND ORGANIC ACID HAVING A PKA OF 4 OR MORE, OR A SALT THEREOF IN BAKERY PRODUCTS” (Mauri Technology B.V., priority 2023, dated 2025)

Columns and labels:
[1] = test system: A. niger; assay: accelerated shelf-life testing (ASLT): time of appearance (TOA) of A. niger on inoculated breadcrumbs; assay type: cell-based, Aspergillus niger
Description: (§1) Breads were made by mixing the dough ingredients from Table 1. The wt.% for several ingredients are given based on flour weight (Flour Weight Based, FWB). For the prepared recipes the difference with total dry weight is insubstantial. The following breads were prepared: a control without any preservatives, a reference containing 0.3% flour weight based (FWB) calcium propionate (CalPro), and a bread containing 1% chitosan (KitoZyme, Belgium) with number average MW of 15 kDa and degree of deacetylation (DDA) of 70%. The chitosan sample was obtained from cell wall of A. niger (KitoZyme, Belgium). Ingredients were mixed using a spiral mixer for 10 minutes. Afterwards the dough for each trial was divided into three pieces of 520 g, rounded manually, and placed into bread tins. The dough pieces were placed in a proofing cabinet to rise at 40 °C and 80% relative humidity until they reach similar height (fermentation time between 60-70 min). The breads were baked for 22 minutes in a deck oven at 260 (bottom) and 230 (top) °C. [Table 1] Bread recipes
(§2) Following baking, the breads were cooled in a HEPA-filtered chamber for 90 min. One bread was used for pH measurement and two breads were subjected to ASLT.
To perform ASLT, the remaining two breads were sliced to 13 mm slices. The crumb (inner part of breads) of three random slices from each bread were cut out using a cookie cutter (3.2 cm diameter) and placed in sterile 6-well plates (2x breads x 3 slices). Two 6-well plates were prepared per bread type. Each bread piece in a 6-well plate was inoculated with 3 aliquots of ±500 spores ([…]) of either A. niger or P. paneum. Therefore, 18 spots of each mould were inoculated per trial (6 bread piece × 3 aliquots). Freeze-dried spores were used in all experiments. The inoculated breads incubated at room temperature of around 21 °C until visible mould appearance. The appearance of the moulds was imaged by taking photographs. The images were inspected visually, and the TOA was defined as mould appearance in hours after mould inoculation. […]

[2] = test system: P. paneum; assay: accelerated shelf-life testing (ASLT): time of appearance (TOA) and growth pattern of P. paneum on inoculated breadcrumbs; assay type: cell-based, Penicillium paneum; settings: CalPro 0.3% FWB; tin bread crumb, ±500 spores; Figure 1
Description: as §1, §2
To perform ASLT, the remaining two breads were sliced to 13 mm slices. […]

[3] = cited from earlier work

SMILES | effectiveness against A. niger, CalPro compared to chitosan ([1]; CalPro 0.3% FWB vs chitosan 1% FWB) | increased TOA of A. niger compared to control bread without preservatives ([1]; CalPro 0.3% FWB, tin bread crumb, ±500 spores, Figure 1A) | increase in TOA of A. niger compared to control without preservative ([1]; CalPro alone 0.3% FWB, Figure 2 A-B) | increased TOA of P. paneum compared to control bread without preservatives [2] | pKa [3]
CCC(=O)[O-].CCC(=O)[O-].[Ca+2] [CalPro, calcium propionate] | more effective against A. niger | 80% | approximately 50% | 17% | –
CC(O)C(=O)O (stereo not drawn) [lactic acid] | – | – | – | – | about 3.85
C/C=C/C=C/C(=O)O [sorbic acid] | – | – | – | – | about 4.76
